Earlier results in US6423302B1, “Use of octocrylene for solubilizing 2,4-bis{[4-(2-ethyl-hexyloxy)-2-hydroxy]-phenyl}-6-(4-methoxyphenyl)-1,3,5-triazine in cosmetic or dermatological light protection compositions” (Beiersdorf AG, priority 1999, dated 2002).

Details: prior-art statement

maximum amount of this filter that known solvents can dissolve (known solvents for this UV filter (lipids)): ≤ 10 % by weight
solubility in lipids (stated as main disadvantage): poor solubility in lipids
Structure (SMILES): CCCCC(CC)COc1ccc(-c2nc(-c3ccc(OC)cc3)nc(-c3ccc(OCC(CC)CCCC)cc3O)n2)c(O)c1 (centres unmarked) [2,4-bis-{[4-(2-ethylhexyloxy)-2-hydroxy]phenyl}-6-(4-methoxyphenyl)-1,3,5-triazine]
